We go through three compounds from ChEMBL document CHEMBL4613324, “Design, Synthesis, and Evaluation of a Series of Novel Super Long-Acting DPP-4 Inhibitors for the Treatment of Type 2 Diabetes” (J Med Chem, 2020).

Series [1] is described as follows: Clearance in ICR mouse at 0.5 mg/kg, iv measured after 0.0833 to 120 hrs by LC-MS-MS analysis. It is filed as ADME, organism-based. Particulars: in vivo.
The nature of series [2]: Half life in ICR mouse at 2 mg/kg, po measured after 0.0833 to 120 hrs by LC-MS-MS analysis. Particulars: in vivo. It is filed as ADME, organism-based.
Series [3] can be described thus: AUC (0 to t) in ICR mouse at 2 mg/kg, po measured after 0.0833 to 120 hrs by LC-MS-MS analysis. It is filed as ADME, organism-based. Also noted: time upper 120 hr, time lower 0.083 hr, dose 2 mg/kg, route oral. Particulars: in vivo.
The nature of series [4]: Volume of distribution at steady state in ICR mouse at 0.5 mg/kg, iv measured after 0.0833 to 120 hrs by LC-MS-MS analysis. Particulars: in vivo, read-out: Vdss. Type of series: ADME, organism-based.
A short description of series [5]: Half life in ICR mouse at 0.5 mg/kg, iv measured after 0.0833 to 120 hrs by LC-MS-MS analysis. Particulars: in vivo. It is filed as ADME, organism-based.
Series [6] in a line: Cmax in ICR mouse at 2 mg/kg, po measured after 0.0833 to 120 hrs by LC-MS-MS analysis. Particulars: in vivo. Type of series: ADME, organism-based. More on the design: dose 2 mg/kg, route oral.
Series [7] can be described thus: Oral bioavailability in ICR mouse at 2 mg/kg measured after 0.0833 to 120 hrs by LC-MS-MS analysis. Type of series: ADME, organism-based. Particulars: in vivo.
Series [8] can be described thus: Intrinsic clearance in mouse liver microsomes at 0.5 uM incubated for 0.5 to 60 mins by LC-MS/MS analysis. It is filed as ADME, Microsome. Particulars: read-out: CLH. (Liver microsomes are vesicles of endoplasmic reticulum, rich in cytochrome P450 enzymes.)
The target of series [9] is Dipeptidyl peptidase 4 (Mus musculus) (UniProt P28843). Put plainly: Ex-vivo inhibition of DPP4 in plasma isolated from ob/ob mouse treated at 30 mg/kg, po measured after 2 to 72 hrs by fluorescence based assay. Type of series: functional, organism-based.
Chain of Dipeptidyl peptidase 4 (Mus musculus) (P28843 whole entry, looked up): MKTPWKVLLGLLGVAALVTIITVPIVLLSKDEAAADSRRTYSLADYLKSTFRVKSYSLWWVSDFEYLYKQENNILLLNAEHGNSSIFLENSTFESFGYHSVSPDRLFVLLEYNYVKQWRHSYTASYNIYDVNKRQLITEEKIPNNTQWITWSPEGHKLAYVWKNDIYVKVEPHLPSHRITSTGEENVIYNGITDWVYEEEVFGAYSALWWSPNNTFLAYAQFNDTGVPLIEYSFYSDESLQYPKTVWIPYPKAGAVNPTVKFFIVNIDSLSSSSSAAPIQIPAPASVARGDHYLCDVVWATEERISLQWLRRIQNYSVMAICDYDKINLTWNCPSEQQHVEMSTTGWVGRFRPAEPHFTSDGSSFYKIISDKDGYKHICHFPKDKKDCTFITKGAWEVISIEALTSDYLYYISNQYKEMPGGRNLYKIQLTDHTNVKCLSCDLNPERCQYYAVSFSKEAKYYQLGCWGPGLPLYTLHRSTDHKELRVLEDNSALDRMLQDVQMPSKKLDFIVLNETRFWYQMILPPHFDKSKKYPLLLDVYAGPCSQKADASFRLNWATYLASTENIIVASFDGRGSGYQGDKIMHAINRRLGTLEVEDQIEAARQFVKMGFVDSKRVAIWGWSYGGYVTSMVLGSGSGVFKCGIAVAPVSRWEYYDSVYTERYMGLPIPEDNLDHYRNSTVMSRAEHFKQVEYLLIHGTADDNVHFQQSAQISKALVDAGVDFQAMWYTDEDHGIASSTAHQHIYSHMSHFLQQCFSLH
For series [10] the target is unchanged. Put plainly: Ex-vivo inhibition of DPP4 in plasma isolated from ob/ob mouse assessed as time duration during which DPP4 inhibition rate stays above 80% treated at 30 mg/kg, po measured after 2 to 72 hrs by fluorescence based assay. It is filed as functional, organism-based.
The test system of series [11] is Mus musculus. Put plainly: Antidiabetic activity in ob/ob mouse assessed as reduction in random blood glucose levels at 30 mg/kg, po dosed once every three days for 31 days. Type of series: functional, organism-based.
Series [12] can be described thus: Toxicity in ob/ob mouse assessed as induction of body weight gain at 30 mg/kg, po dosed once every three days for 31 days. Particulars: in vivo, 744 h. Type of series: organism-based.
In series [13] the test system is Mus musculus. Put plainly: Antidiabetic activity in ob/ob mouse assessed as reduction in decrease in HbA1c level at 3 to 30 mg/kg, po dosed once every three days for 31 day. It is filed as functional, organism-based.
For series [14], the system named is Mus musculus. Put plainly: Antidiabetic activity in ob/ob mouse assessed as reduction in decrease in HbA1c level at 30 mg/kg, po dosed once every three days for 31 day relative to control. Type of series: functional. Also noted: scale not given: the % may be the effect or the level left.

Activity calls are given as the source filed them. The calls are words filed in the database; no cut-off is given here.

As a reminder, the clearance is a measure of how efficiently the substance is removed, as volume per time. One may read the half-life as how long it takes for the measured level to halve. For orientation: AUC(0-t) means exposure summed from dosing to a finite time, without extrapolation to infinity. Broadly, the Cmax is the peak of the concentration-time curve.

Compound `CS(=O)(=O)n1cc2c(n1)CN([C@H]1CO[C@H](c3cc(F)ccc3F)[C@@H](N)[C@H]1F)C2` gave a clearance in series [1] of 0.645 mL/min/kg. The half-life in series [2] is 19.2 h; in series [5], 20.9 h. This compound came in with an area under the curve AUC(0-t) in series [3] of 23500 ng·h/mL. The Vd in series [4] stood at 0.957 L/kg. In series [6], this compound had a Cmax of 1580 ng/mL. Also, in series [7], the bioavailability was 45.4%. In addition, the microsomal CLint at 0.5 µM in [8] was 1.2 µL/min/mg.

In [1], `CS(=O)(=O)n1cc2c(n1)CN([C@@H]1C[C@H](N)[C@@H](c3cc(F)c(F)cc3F)O[C@@H]1C(F)(F)F)C2` registered a clearance of 1.44 mL/min/kg. The results for the half-life in series [2] and in [5] were 20 h and 19.7 h, respectively. The AUC(0-t) in series [3] is 26500 ng·h/mL. Besides, the Vd in [4] worked out at 2.27 L/kg. This compound also displayed a Cmax in series [6] of 999 ng/mL. For the same compound, in series [7], the bioavailability worked out at 114%. Besides, the microsomal CLint at 0.5 µM in [8] turned out to be 1.17 µL/min/mg.

The compound `CS(=O)(=O)n1cc2c(n1)CN([C@H]1CO[C@H](c3cc(F)ccc3F)[C@@H](N)C1)C2` [OMARIGLIPTIN] yielded a clearance in [1] of 7.39 mL/min/kg. In addition, the half-life is 4.65 h in [2] and 3.05 h in series [5]. In addition, the AUC(0-t) in series [3] was 4100 ng·h/mL. The Vd in [4] amounted to 1.65 L/kg. Also, the concentration in series [6] peaked (Cmax) at 798 ng/mL. For the same compound, in series [7], the bioavailability is 95%. The microsomal CLint at 0.5 µM in series [8] worked out at 1.89 µL/min/mg. For the same compound, the inhibition result in series [9] was “Active”. Moreover, in [10], the TIME came to 18 h. The result in the series on Mus musculus [11] and with Mus musculus [13] was Active. In addition, the Activity entry in [12] was “Toxic”; with Mus musculus [14] it was 13.6%.
